Data on five compounds can be found in the supplement of paper PMC10307832.

What all share (test): relative viability (nuclei count vs DMSO), 5 days (fraction); higher = more cells survive
One test concerns NCI-H2228. Put shortly: (§1)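 Five library-drug doses in √10 steps were combined with a fixed anchor-drug dose, or a single drug was given alone, by pin tool to lung cancer cell lines in 1536-well plates the day after seeding. Nuclei were stained and counted after 5 days. Relative viability is the nuclei count in treated wells over that in vehicle wells, taken as the median of duplicate plates.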

The next test has as its system NCI-H1648. In outline: as §1
A further test has as its system NCI-H2009. Put shortly: as §1
The next test relates to EMC-BAC-2. Put shortly: as §1
In another test the test system is ABC-1. Put shortly: as §1
The next test has as its system NCI-H1703. Put shortly: as §1

Consider `CCNC(=O)c1noc(-c2cc(C(C)C)c(O)cc2O)c1-c1ccc(CN2CCOCC2)cc1` [Luminespib] + CC(=O)Nc1cccc(-n2c(=O)n(C3CC3)c(=O)c3c(Nc4ccc(I)cc4F)n(C)c(=O)c(C)c32)c1 [Trametinib] (partner 0.02 µM), for which the relative viability amounted to 0.512 in the test with NCI-H2228 (first compound 0.002 µM); 0.336 with NCI-H2228 (first compound 0.006325 µM); 0.133 in the test with NCI-H2228 (first compound 0.02 µM); 0.0941 with NCI-H2228 (first compound 0.06325 µM); 0.106 in the test on NCI-H2228 (first compound 0.2 µM); 0.395 in the test with NCI-H1648 (first compound 0.002 µM). Moreover, the relative viability in the test with NCI-H1648 (first compound 0.006325 µM) amounted to 0.492; with NCI-H1648 (first compound 0.02 µM) it was 0.513; in the test on NCI-H1648 (first compound 0.06325 µM) it was 0.407; with NCI-H1648 (first compound 0.2 µM), 0.278; in the test on NCI-H2009 (first compound 0.002 µM) it was 0.271; in the test with NCI-H2009 (first compound 0.006325 µM), 0.225. Also, the relative viability was determined as 0.169 in the test with NCI-H2009 (first compound 0.02 µM); 0.0625 in the test with NCI-H2009 (first compound 0.06325 µM); 0.0698 in the test on NCI-H2009 (first compound 0.2 µM); 0.857 in the test with EMC-BAC-2 (first compound 0.002 µM); 0.643 in the test on EMC-BAC-2 (first compound 0.02 µM); 0.619 with EMC-BAC-2 (first compound 0.06325 µM). Further, the relative viability in the test with EMC-BAC-2 (first compound 0.2 µM) was determined as 0.247.
As to `CCNC(=O)c1noc(-c2cc(C(C)C)c(O)cc2O)c1-c1ccc(CN2CCOCC2)cc1` [Luminespib] + CC(=O)c1c(C)c2cnc(Nc3ccc(N4CCNCC4)cn3)nc2n(C2CCCC2)c1=O [Palbociclib] (partner 0.5 µM), the relative viability with NCI-H2228 (first compound 0.002 µM) came to 0.752; with NCI-H2228 (first compound 0.006325 µM), 0.616; in the test on NCI-H2228 (first compound 0.02 µM), 0.121; in the test on NCI-H2228 (first compound 0.06325 µM), 0.119; with NCI-H2228 (first compound 0.2 µM), 0.104; in the test with NCI-H1648 (first compound 0.002 µM), 0.216. Also, the relative viability was found to be 0.336 with NCI-H1648 (first compound 0.006325 µM); 0.246 with NCI-H1648 (first compound 0.02 µM); 0.361 in the test on NCI-H1648 (first compound 0.06325 µM); 0.387 with NCI-H1648 (first compound 0.2 µM); 0.925 with ABC-1 (first compound 0.002 µM); 0.876 in the test on ABC-1 (first compound 0.006325 µM). Besides, the relative viability in the test on ABC-1 (first compound 0.02 µM) worked out at 0.494; with ABC-1 (first compound 0.06325 µM) it was 0.286; with ABC-1 (first compound 0.2 µM), 0.245; with NCI-H2009 (first compound 0.002 µM) it was 0.287; in the test with NCI-H2009 (first compound 0.006325 µM), 0.172; in the test on NCI-H2009 (first compound 0.02 µM), 0.113. Further, the relative viability was determined as 0.0496 in the test on NCI-H2009 (first compound 0.06325 µM); 0.0514 in the test with NCI-H2009 (first compound 0.2 µM); 0.543 with EMC-BAC-2 (first compound 0.002 µM); 0.495 in the test with EMC-BAC-2 (first compound 0.006325 µM); 0.424 in the test with EMC-BAC-2 (first compound 0.02 µM); 0.398 in the test with EMC-BAC-2 (first compound 0.06325 µM). Besides, the relative viability in the test on EMC-BAC-2 (first compound 0.2 µM) amounted to 0.31.
For `CCNC(=O)c1noc(-c2cc(C(C)C)c(O)cc2O)c1-c1ccc(CN2CCOCC2)cc1` [Luminespib] + NC(=O)Nc1cc(-c2cccc(F)c2)sc1C(=O)N[C@H]1CCCNC1 [AZD7762] (partner 0.2 µM), the relative viability in the test with NCI-H1648 (first compound 0.002 µM) came to 0.529; in the test with NCI-H1648 (first compound 0.006325 µM) it was 0.603; in the test with NCI-H1648 (first compound 0.02 µM), 0.875; in the test on NCI-H1648 (first compound 0.06325 µM), 0.702; with NCI-H1648 (first compound 0.2 µM), 0.286; in the test on ABC-1 (first compound 0.002 µM), 0.822. Besides, the relative viability stood at 0.737 with ABC-1 (first compound 0.006325 µM); 0.715 in the test with ABC-1 (first compound 0.02 µM); 0.248 with ABC-1 (first compound 0.06325 µM); 0.212 in the test with ABC-1 (first compound 0.2 µM); 0.146 in the test on NCI-H1703 (first compound 0.002 µM); 0.114 with NCI-H1703 (first compound 0.006325 µM). Also, the relative viability in the test with NCI-H1703 (first compound 0.02 µM) stood at 0.149; in the test with NCI-H1703 (first compound 0.06325 µM), 0.115; with NCI-H1703 (first compound 0.2 µM), 0.114; in the test on EMC-BAC-2 (first compound 0.002 µM) it was 1.12; in the test with EMC-BAC-2 (first compound 0.006325 µM), 0.655; with EMC-BAC-2 (first compound 0.02 µM) it was 0.689. Also, the results for the relative viability with EMC-BAC-2 (first compound 0.06325 µM) and in the test on EMC-BAC-2 (first compound 0.2 µM) were 0.769 and 0.226, respectively.
Turning to `CCNC(=O)c1noc(-c2cc(C(C)C)c(O)cc2O)c1-c1ccc(CN2CCOCC2)cc1` [Luminespib] + Nc1nc2[nH]cc(CCc3ccc(C(=O)N[C@@H](CCC(=O)O)C(=O)O)cc3)c2c(=O)[nH]1 [Pemetrexed] (partner 0.2 µM), the relative viability in the test with NCI-H2228 (first compound 0.002 µM) was 0.346; in the test with NCI-H2228 (first compound 0.006325 µM), 0.405; in the test with NCI-H2228 (first compound 0.02 µM), 0.257; in the test with NCI-H2228 (first compound 0.06325 µM), 0.079; in the test with NCI-H2228 (first compound 0.2 µM) it was 0.136; in the test on NCI-H1648 (first compound 0.002 µM) it was 0.753. For the same compound, the relative viability is 0.683 with NCI-H1648 (first compound 0.006325 µM); 0.899 with NCI-H1648 (first compound 0.02 µM); 0.749 in the test on NCI-H1648 (first compound 0.06325 µM); 0.267 with NCI-H1648 (first compound 0.2 µM); 1.16 in the test on NCI-H2009 (first compound 0.002 µM); 0.973 in the test with NCI-H2009 (first compound 0.006325 µM). Besides, the relative viability in the test with NCI-H2009 (first compound 0.02 µM) was determined as 1.17; in the test on NCI-H2009 (first compound 0.06325 µM), 0.901; in the test with NCI-H2009 (first compound 0.2 µM) it was 0.0692; in the test on EMC-BAC-2 (first compound 0.002 µM) it was 0.467; in the test with EMC-BAC-2 (first compound 0.006325 µM), 0.287; with EMC-BAC-2 (first compound 0.02 µM), 0.573. Also, the relative viability came out at 0.383 in the test on EMC-BAC-2 (first compound 0.06325 µM) and 0.444 in the test with EMC-BAC-2 (first compound 0.2 µM).
With `Cc1csc(=NC2CCCCC2)n1/N=C/c1ccc(O)c(O)c1O` [MIM1] + CC(=O)Nc1cccc(-n2c(=O)n(C3CC3)c(=O)c3c(Nc4ccc(I)cc4F)n(C)c(=O)c(C)c32)c1 [Trametinib] (partner 0.02 µM), the relative viability turned out to be 0.54 in the test on NCI-H2228 (first compound 0.2 µM); 0.642 in the test with NCI-H2228 (first compound 0.6325 µM); 0.506 in the test on NCI-H2228 (first compound 2 µM); 0.307 in the test on NCI-H2228 (first compound 6.325 µM); 0.13 in the test on NCI-H2228 (first compound 20 µM); 0.419 in the test with NCI-H1648 (first compound 0.2 µM). Moreover, the relative viability with NCI-H1648 (first compound 0.6325 µM) is 0.439; in the test on NCI-H1648 (first compound 2 µM) it was 0.619; with NCI-H1648 (first compound 6.325 µM), 0.499; in the test with NCI-H1648 (first compound 20 µM) it was 0.267; in the test with NCI-H2009 (first compound 0.2 µM), 0.257; with NCI-H2009 (first compound 0.6325 µM), 0.261. The relative viability is 0.27 with NCI-H2009 (first compound 2 µM); 0.208 in the test on NCI-H2009 (first compound 6.325 µM); 0.329 with NCI-H2009 (first compound 20 µM); 0.889 in the test on EMC-BAC-2 (first compound 0.2 µM); 0.799 with EMC-BAC-2 (first compound 0.6325 µM); 0.702 in the test with EMC-BAC-2 (first compound 2 µM). Further, the relative viability in the test on EMC-BAC-2 (first compound 6.325 µM) was 0.73; in the test on EMC-BAC-2 (first compound 20 µM) it was 0.355.
